According to publication PMC2932756 (Chemico-biological interactions, 2010):
Each block holds one molecule with its values, some of them ahead of it.

Key:
tyrosinase = test: Tyrosinase mediated GSH depletion assay; format: biochemical, Mushroom; conditions: 100 μM phenolic agent, 200 μM GSH, tyrosinase/O2, 37 °C, 2 h
SK-MEL-28 melanoma cells = test: MTT cell viability assay, IC50; format: cell-based, human; conditions: MTT assay, 48 h incubation
[1] = test system: CYP2E1 induced rat liver microsomes; conditions: 100 μM, pH 7.4
isolated rat hepatocytes = conditions: trypan blue exclusion, 2 h incubation; cited from earlier work

Molecule: O=C(/C=C/c1ccc(O)c(O)c1)O[C@@H]1C[C@](O)(C(=O)O)C[C@@H](O)[C@H]1O [CGA, chlorogenic acid]
Tyrosinase GSH depletion (2 h) (tyrosinase): 200±5%
LD50 (day 2) SK-MEL-28 (SK-MEL-28 melanoma cells): >5 mM

Tyrosinase GSH depletion (2 h) (tyrosinase): 40±7%
Microsomes GSH depletion (2 h) [1]: 110±7%
Molecule: O=C(O)/C=C/c1ccccc1 [CinA, cinnamic acid]

Molecule: O=C(O)CCc1ccc(O)c(O)c1 [DHCA, dihydrocaffeic acid]
Tyrosinase GSH depletion (2 h) (tyrosinase): 200±4%
LD50 (day 2) SK-MEL-28 (SK-MEL-28 melanoma cells): 2.2 mM
LD50 (2 h) rat hepatocytes (isolated rat hepatocytes): 6 mM

Molecule: O=C(O)CCc1ccccc1 [DHCinA, Dihydrocinnamic acid]
Tyrosinase GSH depletion (2 h) (tyrosinase): 32±3%
LD50 (day 2) SK-MEL-28 (SK-MEL-28 melanoma cells): 5 mM

Molecule: ferulic acid [FA]
Tyrosinase GSH depletion (2 h) (tyrosinase): 46±2%
LD50 (day 2) SK-MEL-28 (SK-MEL-28 melanoma cells): 2 mM
LD50 (2 h) rat hepatocytes (isolated rat hepatocytes): 25 mM
